The data set in a line: Comparative 5 minute biodistribution of A-E and 201TlCl in rats. It is filed as in vivo, female Sprague-Dawley rats. The following applies: rat, i.v. 25 uCi/kg. On the procedure:
The following pharmacological studies were conducted on Complex (A), prepared by the method of Example 1; Complex (B), prepared by the method of Example 2; Complex (C) prepared by the method of Example 4; Complex (D) prepared by the method of Example 6; and Complex (E) prepared by the method of Example 7. Where indicated, Thallium-201 was used for comparative purposes.
The biodistribution of the experimental ^99m Tc(I) complexes in rats was compared with Thallium-201, currently the radionuclide of choice for myocardial perfusion imaging. Complex A was supplied as a vacuum-evaporated preparation and reconstituted with 0.9% Sodium Chloride, Injection, U.S.P. The ^99m Tc(I) complexes and ^201 TlCl solutions were diluted to concentrations of 12.5 uCi/ml with 0.9% Sodium Chloride, Injection, U.S.P. for dosing. Groups of 4-12 female Sprague-Dawley rats with body weights ranging from 180-231 g received single intraveneous injections of 25uCi/kg of Complex A, Complex B, Complex C, Complex D, Complex E, or ^201 TlCl.
Animals were sacrificed 5 minutes after dosing and radioactivity concentrations were determined by gamma scintillation spectroscopy in blood, heart, liver, lungs, kidney and skeletal muscle. As a measurement of selectivity of myocardial uptake, heart/blood, heart/liver and heart/lung tissue ratios were determined.

The results in this text go back to US4582700A, “Products and processes” (Mallinckrodt, Inc., priority 1983, dated 1986).

Structures are written as SMILES.

On to `[Cl][201Tl]` [^201 TlCl], for which the “Mean % Dose/g or ml, Blood” value (5 min, blood) was 0.26 % Dose/g or ml. The “Mean % Dose/g or ml, Heart” value (5 min, heart) is listed as 6.35 % Dose/g or ml. Moreover, the “Mean % Dose/g or ml, Kidney” value (5 min, kidney) is on record as 6.53 % Dose/g or ml. Besides, the “Mean % Dose/g or ml, Liver” value (5 min, liver) is recorded as 1.01 % Dose/g or ml. Where the note is “5 min, lung”, the “Mean % Dose/g or ml, Lung” value is listed as 4.69 % Dose/g or ml. Moreover, where the note is “5 min, skeletal muscle”, the “Mean % Dose/g or ml, Muscle” value was 0.82 % Dose/g or ml. Besides, under “5 min after dosing”, the “Mean Tissue Ratio Heart/Blood” value is recorded as 24.31, the “Mean Tissue Ratio Heart/Liver” value worked out at 6.31 and the “Mean Tissue Ratio Heart/Lung” value was determined as 1.35.
